Experimental findings from patent US8618163B2, “Derivatives of cycloalkyl- and cycloalkenyl-1,2-dicarboxylic acid compounds having formyl peptide receptor like-1 (FPRL-1) agonist or antagonist activity” (Allergan, Inc., priority 2010, dated 2013) are described below.

Like-named read-outs stand apart in the source and are kept apart here. Where only a bound is given, the exact number is not on record here.

The target of one test is T1, FPRL1 (Homo sapiens, UniProt P25090).
T1 construct: expressed in transfected cells; host or cells: CHO-Gal6 (CHO cells with G alpha 16)
T1 sequence (P25090 1-351): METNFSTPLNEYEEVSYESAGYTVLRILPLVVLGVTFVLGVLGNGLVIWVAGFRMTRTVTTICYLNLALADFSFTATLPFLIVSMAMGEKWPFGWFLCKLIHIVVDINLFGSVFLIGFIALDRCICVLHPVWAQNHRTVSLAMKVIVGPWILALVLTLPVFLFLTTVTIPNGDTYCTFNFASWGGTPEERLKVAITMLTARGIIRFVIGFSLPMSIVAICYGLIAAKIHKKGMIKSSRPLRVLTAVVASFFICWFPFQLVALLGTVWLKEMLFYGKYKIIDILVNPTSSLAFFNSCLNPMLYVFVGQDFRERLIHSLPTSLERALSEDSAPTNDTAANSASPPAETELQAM
Description: compound-induced calcium activity on FLIPR Tetra in CHO-Gal6 cells stably expressing FPRL1. The settings on record: calcium, FLIPR Tetra; for EC50: tested 0.61 to 10,000 nM, read-out: FPRL1 EC50; for FPRL1 (rel. eff.): relative efficacy. Type of test: cell-based. The protocol:
(§1) CHO-Gal6 cells stably expressing FPRL1 were cultured in (F12, 10% FBS, 1% PSA, 400 μg/ml geneticin and 50 μg/ml hygromycin) and HEK-Gqi5 cells stable expressing FPR1 were cultured in (DMEM high glucose, 10% FBS, 1% PSA, 400 μg/ml geneticin and 50 μg/ml hygromycin). In general, the day before the experiment, 18,000 cells/well were plated in a 384-well clear bottom poly-d-lysine coated plate. The following day the screening compound-induced calcium activity was assayed on the FLIPR^Tetra. The drug plates were prepared in 384-well microplates using the EP3 and the MultiPROBE robotic liquid handling systems. Compounds were tested at concentrations ranging from 0.61 to 10,000 nM. Results are expressed as EC50 (nM) and efficacy values.

For a further test, the target named is T2, FPR1 (Homo sapiens, UniProt P21462).
T2 construct: expressed in transfected cells; host or cells: HEK-Gqi5 (HEK cells with chimeric G protein Gqi5)
T2 sequence (P21462 1-350): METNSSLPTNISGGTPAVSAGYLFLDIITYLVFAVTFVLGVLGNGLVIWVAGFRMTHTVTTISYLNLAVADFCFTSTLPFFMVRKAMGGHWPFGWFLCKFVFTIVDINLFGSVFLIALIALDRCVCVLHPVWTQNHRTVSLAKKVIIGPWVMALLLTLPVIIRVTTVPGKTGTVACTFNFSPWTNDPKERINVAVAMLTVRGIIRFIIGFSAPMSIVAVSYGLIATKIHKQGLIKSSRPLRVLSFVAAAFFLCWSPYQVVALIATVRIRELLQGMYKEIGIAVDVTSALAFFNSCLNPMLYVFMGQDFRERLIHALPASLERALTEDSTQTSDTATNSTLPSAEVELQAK
Description: compound-induced calcium activity on FLIPR Tetra in HEK-Gqi5 cells stable expressing FPR1. The class given is cell-based. Details: FPR1 (rel. eff.): scale not given here. As to conditions: for FPR1 (rel. eff.): relative efficacy. The protocol: as §1

Where [1] appears, read: class symbol NA, read-out: FPR1 EC50 (NA = Not Active).
The mark [2] stands for this setting: calcium, FLIPR Tetra, tested 0.61 to 10,000 nM, read-out: FPR1 EC50.

The term EC50 denotes the concentration giving half of the maximal effect.

With `O=C(NCCO)[C@@H]1[C@H](C(=O)Nc2ccc(Br)cc2)[C@@H]2CC[C@H]1C21CC1` (racemic) [Compound 82, (+/−)-(1S,2R,3S,4R)—N^2-(4-Bromophenyl)-N^3-[2-hydroxyethyl]spiro[bicyclo[2.2.1]heptane-7,1′-cyclopropane]-2,3-dicarboxamide], on FPRL1, the EC50 came to 8.8 nM and the “FPRL1 (rel. eff.)” value came to 0.86. In addition, the EC50 at FPR1 (setting [1]) is greater than 10000 nM.

With `NC(=O)C1C(C(=O)Nc2ccc(I)cc2)C2C=CC1C21CC1` (racemic) [Compound 50, (+/−)-(1R,4S,5R,6S)—N-5-(4-Iodophenyl)spiro[bicyclo[2.2.1]hept[2]ene-7,1′-cyclopropane]-5,6-dicarboxamide], on FPRL1, the EC50 worked out at 1.8 nM and the “FPRL1 (rel. eff.)” value came to 0.85. Besides, at FPR1 (setting [1]), the EC50 was greater than 10000 nM.

For the compound `CC1(C)C2CCC1C(C(=O)Nc1ccc(I)cc1)C2C(N)=O` (racemic) [Compound 61, (+/−)-(1S,2R,3S,4R)—N^2-(4-Iodophenyl)-7,7-dimethylbicyclo[2.2.1]heptanes-2,3-dicarboxamide], the “FPRL1 (rel. eff.)” value at FPRL1 was 0.82. The EC50 on FPR1 (setting [1]) is greater than 10000 nM.

`O=C(O)C1=C(C(=O)Nc2ccc(Br)cc2)C2CCC1CC2` [Compound 60, (1s,4s)-3-((4-Bromophenyl)carbamoyl)bicyclo[2.2.2]oct-2-ene-2-carboxylic Acid]: at FPRL1, the EC50 was 143 nM and the “FPRL1 (rel. eff.)” value was 1.0. The EC50 on FPR1 (setting [1]) is greater than 10000 nM.

For the compound `CSc1ccc(NC(=O)[C@H]2[C@@H](C(N)=O)[C@H]3CC[C@@H]2C3(C)C)cc1` (racemic) [Compound 56, (+/−)-(1S,2R,3S,4R)-7,7-Dimethyl-N2-(4-(methylthio)phenyl)bicyclo[2.2.1]heptane-2,3-dicarboxamide], on FPRL1, the “FPRL1 (rel. eff.)” value is listed as “ND (0.96)”. On FPR1 (setting [1]), the EC50 is greater than 10000 nM.

As to `CSc1ccc(NC(=O)[C@H]2[C@@H](C(N)=O)[C@H]3CC[C@@H]2C3(C)C)cc1` (racemic) [Compound 64, (+/−)-(1S,2R,3S,4R)-7,7-Dimethyl-N^2-(4-(methylthio)phenyl)bicyclo[2.2.1]heptane-2,3-dicarboxamide], the EC50 on FPRL1 was 17.2 nM; on FPR1 (setting [1]), greater than 10000 nM. The “FPRL1 (rel. eff.)” value on FPRL1 was 0.9.

Turning to `CCc1ccc(NC(=O)[C@H]2[C@@H](C(N)=O)[C@H]3CC[C@@H]2C3(C)C)cc1` (racemic) [Compound 57, (+/−)-(1S,2R,3S,4R)—N2-(4-Ethylphenyl)-7,7-dimethylbicyclo[2.2.1]heptane-2,3-dicarboxamide], the concentration for a half-maximal effect (EC50) was 35 nM on FPRL1 and greater than 10000 nM on FPR1 (setting [1]). Moreover, the “FPRL1 (rel. eff.)” value on FPRL1 came to 0.95.

In the case of `CCNC(=O)[C@@H]1[C@H](C(=O)Nc2ccc(Br)cc2)[C@@H]2CC[C@H]1C21CC1` (racemic) [Compound 78, (+/−)-(1S,2R,3S,4R)—N^2-(4-Bromophenyl)-N^3-ethylspiro[bicyclo[2.2.1]heptane-7,1′-cyclopropane]-2,3-dicarboxamide], on FPRL1, the EC50 is 12.5 nM and the “FPRL1 (rel. eff.)” value is 0.95. At FPR1 (setting [1]), the EC50 is greater than 10000 nM.

Turning to `CSc1ccc(NC(=O)C2C(C(N)=O)C3C=CC2C32CC2)cc1` (racemic) [Compound 63, (+/−)-(1R,4S,5R,6S)—N^5-(4-(Methylthio)phenyl)spiro[bicyclo[2.2.1]hept[2]ene-7,1′-cyclopropane]-5,6-dicarboxamide], the EC50 is 96.6 nM on FPRL1 and greater than 10000 nM at FPR1 (setting [1]). Also, the “FPRL1 (rel. eff.)” value on FPRL1 is listed as 0.9.

Consider `CNC(=O)[C@@H]1[C@H](C(=O)Nc2ccc(Br)cc2)[C@@H]2CC[C@H]1C21CC1` (racemic) [Compound 77, (+/−)-(1S,2R,3S,4R)—N^2-(4-Bromophenyl)-N^3-methylspiro[bicyclo[2.2.1]heptane-7,1′-cyclopropane]-2,3-dicarboxamide], for which, on FPRL1, the concentration giving a half-maximal response (EC50) is 9.7 nM and the “FPRL1 (rel. eff.)” value is recorded as 0.95. For the same compound, the EC50 at FPR1 (setting [1]) is greater than 10000 nM.

Regarding `O=C(O)C1C(C(=O)Nc2ccc(-c3ccccc3)cc2)C2C=CC1C21CC1` (racemic) [Compound 26, (+/−)-(1R,4S,5R,6S)-5-([1,1′-Biphenyl]-4-ylcarbamoyl)spiro[bicyclo[2.2.1]hept[2]ene-7,1′-cyclopropane]-6-carboxylic Acid], at FPRL1, the EC50 was determined as 2360 nM and the “FPRL1 (rel. eff.)” value came out at 0.69. Also, on FPR1 (setting [1]), the EC50 is greater than 10000 nM.

Regarding `CSc1ccc(NC(=O)[C@H]2[C@@H](C(N)=O)[C@H]3CC[C@@H]2C32CC2)cc1` (racemic) [Compound 53, (+/−)-(1S,2R,3S,4R)—N2-(4-(Methylthio)phenyl)spiro[bicyclo[2.2.1]heptane-7,1′-cyclopropane]-2,3-dicarboxamide], at FPRL1, the EC50 was found to be 15 nM and the “FPRL1 (rel. eff.)” value was found to be 0.86. Further, the EC50 at FPR1 (setting [1]) was greater than 10000 nM.

With `O=C(O)C1C(C(=O)Nc2cccc(C(F)(F)F)c2)C2C=CC1C21CC1` (racemic) [Compound 27, (+/−)-(1S,4R,5S,6R)-6-β3-(Trifluoromethyl)phenyl)carbamoyl)spiro[bicyclo-[2.2.1]hept[2]ene-7,1′-cyclopropane]-5-carboxylic Acid], the values for the concentration for a half-maximal effect (EC50) on FPRL1 and on FPR1 (setting [1]) were 2770 nM and greater than 10000 nM, respectively. The “FPRL1 (rel. eff.)” value on FPRL1 is 0.72.

In the case of `CSc1ccc(NC(=O)[C@H]2[C@@H](C(=O)O)[C@H]3CC[C@@H]2C32CC2)cc1` (racemic) [Compound 42, (+/−)-(1R,2S,3R,4S)-3-((4-(Methylthio)phenyl)carbamoyl)spiro[bicyclo-[2.2.1]heptane-7,1′-cyclopropane]-2-carboxylic Acid], on FPRL1, the EC50 was 7 nM and the “FPRL1 (rel. eff.)” value is 0.96. Also, the EC50 at FPR1 (setting [2]) was found to be 1100 nM. In addition, the “FPR1 (rel. eff.)” value on FPR1 (calcium, FLIPR Tetra) stood at 0.23.

Take `O=C(O)C1C(C(=O)Nc2ccc(Br)cc2)C2CCC1C21CC1` (single isomer, unassigned) [Compound 10B]: at FPRL1, the EC50 is less than 1 nM and the “FPRL1 (rel. eff.)” value came out at 0.98. Also, the EC50 at FPR1 (setting [2]) worked out at 2170 nM. Moreover, at FPR1 (calcium, FLIPR Tetra), the “FPR1 (rel. eff.)” value came out at 0.76.

On to `CCc1ccc(NC(=O)[C@H]2[C@@H](C(N)=O)[C@H]3CC[C@@H]2C32CC2)cc1` (racemic) [Compound 52, (+/−)-(1S,2R,3S,4R)—N^2-(4-Ethylphenyl)spiro[bicyclo[2.2.1]heptane-7,1′-cyclopropane]-2,3-dicarboxamide], for which, on FPRL1, the EC50 is 33 nM and the “FPRL1 (rel. eff.)” value came out at 0.97. In addition, the EC50 on FPR1 (setting [1]) was greater than 10000 nM.

As for `CC1(C)[C@@H]2CC[C@H]1[C@@H](C(=O)Nc1ccc(Cl)cc1)[C@H]2C(=O)O` (racemic) [Compound 14, (+/−)-(1R,2S,3R,4S)-3-(4-Chlorophenylcarbamoyl)-7,7-dimethylbicyclo[2.2.1]heptane-2-carboxylic Acid], on FPRL1, the EC50 was found to be 36 nM and the “FPRL1 (rel. eff.)” value is reported as 0.86. Moreover, on FPR1 (setting [1]), the EC50 is greater than 10000 nM.

For `NC(=O)c1ccc(NC(=O)C2C(C(=O)O)C3CCC2C32CC2)cc1` (racemic) [Compound 74, (+/−)-(1S,2R,3S,4R)-2-((4-Carbomoylphenyl)carbamoyl)spiro[bicyclo[2.2.1]-heptan-7,1′-cyclopropane]-3-carboxylic Acid], the EC50 was 2770 nM at FPRL1 and greater than 10000 nM on FPR1 (setting [1]). Also, the “FPRL1 (rel. eff.)” value on FPRL1 is recorded as 0.67.

Turning to `CCc1ccc(NC(=O)C2C(C(N)=O)C3C=CC2C32CC2)cc1` (racemic) [Compound 66, (+/−)-(1R,4S,5R,6S)—N^5-(4-Ethylphenyl)spiro[bicyclo[2.2.1]hept[2]ene-7,1′-cyclopropane]-5,6-dicarboxamide], at FPRL1, the EC50 amounted to 50.8 nM and the “FPRL1 (rel. eff.)” value amounted to 0.79. Besides, the half-maximal effective concentration (EC50) at FPR1 (setting [1]) is greater than 10000 nM.

As to `CC(=O)c1ccc(NC(=O)C2C(C(=O)O)C3C=CC2C32CC2)cc1` (racemic) [Compound 32, (+/−)-(1R,4S,5R,6S)-5-((4-Acetylphenyl)carbamoyl)spiro[bicyclo[2.2.1]hept[2]ene-7,1′-cyclopropane]-6-carboxylic Acid], at FPRL1, the EC50 turned out to be 277 nM and the “FPRL1 (rel. eff.)” value amounted to 0.96. Further, the EC50 on FPR1 (setting [1]) is greater than 10000 nM.

In the case of `CCc1ccc(NC(=O)C2C(C(N)=O)C3C=CC2C32CC2)cc1` (racemic) [Compound 48, (+/−)-(1R,4S,5R,6S)—N-5-(4-Ethylphenyl)spiro[bicyclo[2.2.1]hept[2]ene-7,1′-cyclopropane]-5,6-dicarboxamide], the EC50 is 51 nM on FPRL1 and greater than 10000 nM on FPR1 (setting [1]). Besides, the “FPRL1 (rel. eff.)” value on FPRL1 turned out to be 0.79.
